{"source": "patent US20210315971A1", "about": "“COMPOSITIONS ACTING AS PRO(RENIN) RECEPTOR ANTAGONISTS FOR THE TREATMENT OF NON-ALCOHOLIC FATTY LIVER DISEASE” (Board of Regents of the Nevada System of Higher Education …, priority 2018, published 2021)", "assay_type_in_all_cases": "in vivo", "key": {"Wild-type C57Bl/6J mice": {"tested_on": "Wild-type C57Bl/6J mice", "test": "High fat diet induced liver steatosis in mice, Oil Red O staining of liver", "details": "HFD 6 weeks; PRO20 27 ug/kg/d by subcutaneous osmotic pump for 4 weeks; HFD saline 17.57±3.23%, NFD 3.51±0.86%; N=4 mice/group", "procedure": "Non-alcoholic fatty liver steatohepatitis (NASH) represents a diverse array of liver damage linked to obesity, metabolic syndrome, and diabetes. The mechanisms and the treatment for NASH remains lacking. The inventors hypothesized that PRR antagonism using PRO20 prevents NASH development. FIG. 6 illustrates subcutaneous administration of PRR antagonist, PRO20, attenuates high fat diet induced-liver steatosis in mice. Wild-type C57Bl/6J mice were treated with either with either HFD (60% calories from fat) or normal fat chow (NFD, 10% calories from fat) with matching calories for 6 weeks. Two week following diet modification, HFD mice were implanted with subcutaneous osmotic pump containing either PRO20 (27 ug/kg/d) or saline for 4 weeks. Liver tissues were processed for Oil Red 0 staining for lipid accumulation and quantified using Image)/FIJI software. Data were presented % of ORO staining to the total area. N=4 mice/group. *p<0.01 vs. NFD; #P<0.05 vs. HFD Saline; One-way ANOVA. 6 weeks of HFD (17.57±3.23%) induced a significant elevation on liver ORO staining compared with the liver from mice fed with NFD (3.51±0.86%, p=0.005). […] FIG. 7 illustrates subcutaneous administration of PRR antagonist, PRO20, attenuates peroxisome proliferator-activated receptor gamma (PPARγ)."}, "[1]": {"tested_on": "liver renin-angiotensin system", "test": "Liver renin-angiotensin system activation induced by high fat diet", "details": "subcutaneous administration, high fat diet mice (FIG. 8)"}, "[2]": {"tested_on": "peroxisome proliferator-activated receptor gamma (PPARγ)", "test": "Liver PPARγ in high fat diet mice", "details": "subcutaneous administration, high fat diet mice (FIG. 7)", "excerpt": "FIG. 7 illustrates subcutaneous administration of PRR antagonist, PRO20, attenuates peroxisome proliferator-activated receptor gamma (PPARγ). […] PRO20 treatment prevents the upregulating of PPARγ in the liver supporting a mechanism for the beneficial role of PRO20 in preventing fatty liver development.\nNon-alcoholic fatty liver steatohepatitis (NASH) represents a diverse array of liver damage linked to obesity, metabolic syndrome, and diabetes. The mechanisms and the treatment for NASH remains lacking. The inventors hypothesized that PRR antagonism using PRO20 prevents NASH development. FIG. 6 illustrates subcutaneous administration of PRR antagonist, PRO20, attenuates high fat diet induced-liver steatosis in mice. Wild-type C57Bl/6J mice were treated with either with either HFD (60% calories from fat) or normal fat chow (NFD, 10% calories from fat) with matching calories for 6 weeks. Two week following diet modification, HFD mice were implanted with subcutaneous osmotic pump containing either PRO20 (27 ug/kg/d) or saline for 4 weeks. Liver tissues were processed for Oil Red 0 staining for lipid accumulation and quantified using Image)/FIJI software. Data were presented % of ORO staining to the total area. N=4 mice/group. *p<0.01 vs. NFD; #P<0.05 vs. HFD Saline; One-way ANOVA. […]"}}}
{"sequence": "LPTDTTTFKRIFLKRMPSI (Synthetic (pro)renin receptor agonist peptide) [PRO20]", "values": [{"measurement": "% of ORO staining to the total area (liver lipid accumulation)", "setting": "Wild-type C57Bl/6J mice", "value": "7.34±1.96", "unit": "%"}, {"measurement": "Effect on liver renin-angiotensin system activation induced by high fat diet", "setting": "[1]", "value": "prevents activation"}, {"measurement": "Effect on liver PPARγ", "setting": "[2]", "value": "attenuates"}]}
